In patent US8545872B2, “Device for the transdermal administration of a rotigotine base” (UCB Pharma GmbH, priority 2002, dated 2013):

Assays:
[1] = cited from earlier work
[2] = Solubility of rotigotine in polymers and solvents; format: physicochemical; conditions: e.g. hexane, ethyl acetate and toluol

- Solubility of the crystals in solvents suitable for dissolving matrix polymers [2]: nearly insoluble
SMILES: CCCN(CCc1cccs1)[C@H]1CCc2c(O)cccc2C1 [Rotigotine, (−)-5,6,7,8-tetrahydro-6-[propyl[2-(2-thienyl)ethyl]amino]-1-naphtol]
- Solubility in hydrophobic polymers such as silicon [1]: only feebly soluble
